Measurements from patent publication US6335327B1, “Benzoheterocyclic derivatives” (Otsuka Pharmaceuticals Co., Ltd., priority 1994, dated 2002).

SMILES | melting point [°C]
COc1cc(NCCOc2ccccc2C)ccc1C(=O)N1CCCC(CC(=O)N2CCN(C)CC2)c2cc(Cl)ccc21 (stereo not drawn) [Example 139, 7-chloro-5-[(4-methyl-1-piperazinyl)carbonylmethyl]-1-[2-methoxy-4-[2-(2-methylphenoxy)ethylamino]benzoyl}-2,3,4,5-tetrahydro-1H-benzazepine] | 160 to 161
COc1cc(NCc2ccccc2C)ccc1C(=O)N1CCCC(CC(=O)N2CCN(C)CC2)c2cc(Cl)ccc21 (stereo not drawn) [Example 142, 7-chloro-5-[(4-methyl-1-piperazinyl)carbonylmethyl]-1-[2-methoxy-4-(2-methylbenzylamino)benzoyl]-2,3,4,5-tetrahydro-1H-benzazepine] | 153 to 154.5
COc1cc(C(=O)N2CCCCc3cc(Cl)ccc32)ccc1NC(=O)N(C)C [Example 146, 7-chloro-1-(3-methoxy-4-dimethylaminocarbonylaminobenzoyl)-2,3,4,5-tetrahydro-1H-benzazepine] | 230 to 232
O=C(O)CC1CCCN(C(=O)c2ccc(NC(=O)COc3ccccc3)cc2)c2ccccc21 (stereo not drawn) [Example 721, 5-carboxymethyl-1-[4-(2-phenoxyacetylamino)benzoyl]-2,3,4,5-tetrahydro-1H-benzazepine] | 102 to 106
Cc1cc(NC(=O)CO)ccc1C(=O)N1CCCCc2cc(Cl)ccc21 [Example 722, 7-chloro-1-[2-methyl-4-(2-hydroxyacetylamino)benzoyl]-2,3,4,5-tetrahydro-1H-benzazepine] | 194 to 195
O=C(Nc1ccc(C(=O)N2CCCCc3ccccc32)c(Cl)c1)OCc1ccncc1 [Example 725, 1-{4-[(4-pyridyl)methoxycarbonylamino]-2-chlorobenzoyl}-2,3,4,5-tetrahydro-1H-benzazepine] | 181 to 184

The next lines start with the values.

melting point [°C] | SMILES
144 to 146 | O=C(Nc1ccc(C(=O)N2CCCCc3ccccc32)c(Cl)c1)OCCOc1ccccc1 [Example 726, 1-[4-(2-phenoxyethoxycarbonylamino)-2-chlorobenzoyl]-2,3,4,5-tetrahydro-1H-benzazepine]
138 to 140 | CN1CCN(c2ccc(C(=O)N3CCCCc4ccccc43)c(Cl)c2)CC1 [Example 728, 1-[4-(4-methyl-1-piperazinyl)-2-chlorobenzoyl]-2,3,4,5-tetrahydro-1H-benzazepine]
191 to 194 | O=C(c1ccc(-c2ccccc2)cc1Cl)N1CCCC(Cc2nnn[nH]2)c2ccccc21 (stereo not drawn) [Example 730, 5-(5-tetrazolyl)methyl-1-(4-phenyl-2-chlorobenzoyl)-2,3,4,5-tetrahydro-1H-benzazepine]
